# Reference: patent publication US6262075A, “Piperidone tachykinin antagonists” (Pfizer Inc, priority 1996, dated 2001)
# Molecular target: T1, human NK2 receptor (Homo sapiens, UniProt P21452)
# T1 construct: expressed in transfected cells; host or cells: Chinese hamster ovary cells (membranes)
# T1 sequence (P21452 1-398): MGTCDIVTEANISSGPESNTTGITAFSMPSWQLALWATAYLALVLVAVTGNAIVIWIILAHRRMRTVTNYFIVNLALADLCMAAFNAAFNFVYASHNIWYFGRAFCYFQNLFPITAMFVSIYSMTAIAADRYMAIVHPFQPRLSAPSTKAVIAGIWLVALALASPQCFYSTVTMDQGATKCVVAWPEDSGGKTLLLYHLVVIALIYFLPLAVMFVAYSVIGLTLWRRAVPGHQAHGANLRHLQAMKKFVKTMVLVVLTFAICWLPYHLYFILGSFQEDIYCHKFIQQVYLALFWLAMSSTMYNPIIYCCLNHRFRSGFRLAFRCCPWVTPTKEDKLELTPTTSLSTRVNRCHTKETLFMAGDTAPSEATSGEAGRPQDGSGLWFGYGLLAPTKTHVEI
# Experiment: affinity for the human NK2 receptor, competition with [^3 H] NKA for binding to membranes prepared from Chinese hamster ovary cells
# Conditions: membranes from Chinese hamster ovary cells expressing the cloned human NK2 receptor, negative logarithm of the molar affinity
# Protocol: The affinity of the compounds of formula (I) and their salts for the human NK2 receptor can be tested in vitro by testing their ability to compete with [^3 H] or [^125 I]NKA (neurokinin A) for binding to membranes prepared from Chinese hamster ovary cells expressing the cloned human NK2 receptor. In this method, washed Chinese hamster ovary cell membranes are prepared as described for the previous method where IM9 cells are used instead. The membranes are incubated (90 min, 25° C.) with [^3 H] or [^125 I]NKA and with a range of concentrations of the test compound. Non-specific binding was determined in the presence of 10 μM NKA.
# The affinity of a selection of the compounds of the preceding Examples for the human NK2 receptor was tested in vitro by testing their ability to compete with [^3 H] NKA for binding to membranes prepared from Chinese hamster ovary cells expressing the cloned human NK2 receptor using the method set out on page 26.
# The "pKi" measurement is the negative logarithm of the molar affinity of the compound for the receptor as determined in radioligand binding assays using standard protocols.
row,SMILES,Ki
1,O=C1CC[C@](CCN2CC(N3CCC(F)CC3)C2)(c2ccc(Cl)c(Cl)c2)CN1CC1CCC(F)(F)CC1 [Example 1],0.631 nM
2,O=C1CCC(CCN2CC(N3CCC(F)CC3)C2)(c2ccc(Cl)c(Cl)c2)CN1C1CCCCC1 (stereo not shown) [Example 2],0.0501 nM
3,O=C1CCC(CCN2CC(N3CCC(F)CC3)C2)(c2ccc(Cl)c(Cl)c2)CN1C1(C2CC2)CCCC1 (stereo not shown) [Example 3],0.1 nM
4,O=C1CCC(CCN2CC(N3CCC(F)CC3)C2)(c2ccc(Cl)c(Cl)c2)CN1CCC1CC1 (stereo not shown) [Example 4],2.51 nM
